# According to ChEMBL document CHEMBL5579878, “Allosteric Activation of Protein Phosphatase 5 with Small Molecules” (J Med Chem, 2024):
# Legend:
# [1] = target: T1, Serine/threonine-protein phosphatase 5 (Homo sapiens) (UniProt P53041); experiment: Activation of His-tagged human PP5 extracted from Escherichia coli BL21 using pNPP as substrate assessed as fold increase in phosphatase activity at 50 uM incubated for 30 mins by spectrophotometric analysis
# T1 sequence (whole entry): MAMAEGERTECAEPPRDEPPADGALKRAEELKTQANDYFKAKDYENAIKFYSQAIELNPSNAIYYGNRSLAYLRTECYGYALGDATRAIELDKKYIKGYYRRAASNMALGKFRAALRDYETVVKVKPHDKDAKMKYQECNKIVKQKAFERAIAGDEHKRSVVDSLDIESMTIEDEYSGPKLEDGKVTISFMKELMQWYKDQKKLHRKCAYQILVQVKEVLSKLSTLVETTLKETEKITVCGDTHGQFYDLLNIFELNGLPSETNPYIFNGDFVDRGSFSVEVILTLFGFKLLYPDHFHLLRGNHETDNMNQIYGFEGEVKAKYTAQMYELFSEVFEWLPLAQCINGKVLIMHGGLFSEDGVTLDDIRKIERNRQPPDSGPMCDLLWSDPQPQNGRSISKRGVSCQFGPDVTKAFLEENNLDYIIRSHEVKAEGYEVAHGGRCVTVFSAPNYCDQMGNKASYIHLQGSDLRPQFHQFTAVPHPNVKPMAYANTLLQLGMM
# [2] = target: T1, Serine/threonine-protein phosphatase 5 (Homo sapiens); experiment: Activation of His-tagged human PP5 extracted from Escherichia coli BL21 using pNPP as substrate assessed as increase in phosphatase activity incubated for 30 mins by spectrophotometric analysis; settings: filed as activator
# [3] = target: T1, Serine/threonine-protein phosphatase 5 (Homo sapiens); experiment: Activation of His-tagged human PP5 extracted from Escherichia coli BL21 using pNPP as substrate assessed as fold change in maximum activation upto 300 uM incubated for 30 mins by spectrophotometric analysis; settings: filed as activator
# [4] = target: T1, Serine/threonine-protein phosphatase 5 (Homo sapiens); experiment: Activation of His-tagged human PP5 extracted from Escherichia coli BL21 using pNPP as substrate assessed as fold increase in phosphatase activity at 200 uM incubated for 30 mins by spectrophotometric analysis; settings: filed as activator
# [5] = target: T2, Serine/threonine-protein phosphatase 5 (Homo sapiens, UniProt P53041); experiment: Inhibition of human PP5 phosphatase domain extracted from Escherichia coli BL21 using pNPP as substrate incubated for 30 mins by spectrophotometric analysis
# T2 sequence (P53041 whole entry): T1 sequence (whole entry)
# [6] = target: T2, Serine/threonine-protein phosphatase 5; experiment: Inhibition of DDO-3733 preincubated human PP5 phosphatase domain extracted from Escherichia coli BL21 using pNPP as substrate incubated for 30 mins by spectrophotometric analysis
# [7] = test system: HCT-116; experiment: Antiproliferative activity against human HCT-116 cells assessed as inhibition of cell proliferation incubated for 72 hrs by CCK8 assay; type: functional, cell-based; settings: HCT-116, 72 h
# [8] = test system: SW-620; experiment: Antiproliferative activity against human SW620 cells assessed as inhibition of cell proliferation incubated for 72 hrs by CCK8 assay; type: functional, cell-based; settings: SW-620, 72 h
# [9] = test system: HCT-116; experiment: Heat shock toxicity in human HCT-116 cells assessed as increase in HSP27 protein expression at 3 to 100 nM incubated for 24 hrs by Western blot analysis; type: cell-based; settings: hct-116, 24 h, 0.1 µM, dose 3-100 nM
# [10] = test system: HCT-116; experiment: Heat shock toxicity in human HCT-116 cells assessed as increase in HSP40 protein expression at 3 to 100 nM incubated for 24 hrs by Western blot analysis; type: cell-based; settings: hct-116, 24 h, 0.1 µM, dose 3-100 nM
# [11] = test system: HCT-116; experiment: Heat shock toxicity in human HCT-116 cells assessed as increase in HSP70 protein expression at 3 to 100 nM incubated for 24 hrs by Western blot analysis; type: cell-based; settings: hct-116, 24 h, 0.1 µM, dose 3-100 nM
# [12] = test system: HCT-116; experiment: Heat shock toxicity in human HCT-116 cells assessed as increase in HSP27 mRNA expression at 10 to 100 nM incubated for 24 hrs by qRT-PCR analysis; type: cell-based; settings: hct-116, 24 h, 0.1 µM, dose 10-100 nM
# [13] = test system: HCT-116; experiment: Heat shock toxicity in human HCT-116 cells assessed as increase in HSP40 mRNA expression at 10 to 100 nM incubated for 24 hrs by qRT-PCR analysis; type: cell-based; settings: hct-116, 24 h, 0.1 µM, dose 10-100 nM
# [14] = test system: HCT-116; experiment: Heat shock toxicity in human HCT-116 cells assessed as increase in HSP70 mRNA expression at 10 to 100 nM incubated for 24 hrs by qRT-PCR analysis; type: cell-based; settings: hct-116, 24 h, 0.1 µM, dose 10-100 nM
# [15] = Toxicity in BALB/c nude mouse xenografted with human HCT-116 cells assessed as body weight loss at 20 mg/kg, ip administered every other day for 14 days; type: organism-based; settings: in vivo, 336 h, time 14 day
fold change (FC) ([1]; filed as activator),fold change (FC) [1],Structure (SMILES),also measured
1.6,–,Cc1ccc2oc(=N)c(C(N)=S)cc2c1,–
2.1,–,N=c1oc2cc(Br)ccc2cc1C(N)=S,Activity [2]: Dose-Dependent Effect; fold change (FC) [3]: 4
1.6,–,COc1ccc2cc(C(N)=S)c(=N)oc2c1,–
1.7,–,N=c1oc2cc(F)ccc2cc1C(N)=S,–
–,< 1.5,N=c1oc2cc([N+](=O)[O-])ccc2cc1C(N)=S,–
–,< 1.5,N=c1oc2cc(F)cc(F)c2cc1C(N)=O,–
–,< 1.5,CO/N=c1/oc2c(F)cc(F)cc2cc1C(N)=S,–
1.6,–,N=c1oc2cccc(F)c2cc1C(N)=S,–
1.9,–,COc1ccc2oc(=N)c(C(N)=S)cc2c1,fold change (FC) [4]: 3.4; Activity [2]: Dose-Dependent Effect
–,–,CN1CCN(C(=O)C2C(C(=O)O)[C@H]3CC[C@@H]2O3)CC1 (stereo partly drawn) [LB-100],IC50 [5]: 22.1 µM; IC50 [6]: 21.1 µM
2.1,–,N=c1oc2c(F)cc(F)cc2cc1C(N)=S,–
–,< 1.5,N=c1oc2c(F)cccc2cc1C(N)=S,–
–,–,CC(C)c1cc(C(=O)N2Cc3ccc(CN4CCN(C)CC4)cc3C2)c(O)cc1O [ONALESPIB],IC50 [7]: 0.0785 µM; IC50 [8]: 0.122 µM; Activity [9]: Toxic; Activity [10]: Toxic; Activity [11]: Toxic; Activity [12]: Toxic; Activity [13]: Toxic; Activity [14]: Toxic; Activity [15]: Non-Toxic
–,< 1.5,N=c1oc2c(Cl)cc(Cl)cc2cc1C(N)=S,–
1.8,–,N=c1oc2c(F)ccc(F)c2cc1C(N)=S,–
1.8,–,N=c1oc2ccccc2cc1C(N)=S,–
2.4,–,N=c1oc2cc(O)ccc2cc1C(N)=S,–
2.1,–,COc1cc(Br)cc2cc(C(N)=S)c(=N)oc12,–
1.9,–,N=c1oc2ccc(O)cc2cc1C(N)=S,–
–,< 1.5,C/N=c1/oc2c(F)cc(F)cc2cc1C(N)=S,–
2.1,–,N=c1oc2c(F)cc(F)cc2cc1C(=S)NC=O,–
–,< 1.5,N=c1oc2ccc(F)cc2cc1C(N)=S,–
–,< 1.5,COc1cccc2oc(=N)c(C(N)=S)cc12,–
2.6,–,N=c1oc2c(Br)cc(Br)cc2cc1C(N)=S,–
–,< 1.5,N=c1oc2c(F)cc(F)cc2cc1C(N)=O,–
–,< 1.5,N=c1oc2cccc(Br)c2cc1C(N)=S,–
1.6,–,N=c1oc2ccc3ccccc3c2cc1C(N)=S,–
1.7,–,N=c1oc2cc(F)c(F)cc2cc1C(N)=S,–
1.8,–,NC(=S)C1=Cc2cc(F)cc(F)c2OC1N (stereo not drawn),–
–,< 1.5,COc1cccc2cc(C(N)=S)c(=N)oc12,–
